Experimental findings from US20250073199A1, “Polymyxin Antibiotic Synergist and Anti-Gram-Negative Bacteria Pharmaceutical Composition” (Artivila Biopharma, priority 2022, published 2025) are described below.

The test system of test [1] is standard strain of Escherichia coli ATCC25922. Put plainly: Chessboard combination test, bacterial inhibition rate / MIC / FIC. It is filed as cell-based. Conditions: FIG. 4. As for the experimental part: (§1) 1) a standard strain of Klebsiella pneumoniae ATCC13883, a clinical resistant strain of Klebsiella pneumoniae 38206, a standard strain of Acinetobacter baumannii ATCC19606, a standard strain of Escherichia coli ATCC25922, and a standard strain of Pseudomonas aeruginosa ATCC27853 were respectively cultured at 37° C. and under shaking at 220 rpm until OD600=0.6-0.8, where OD600 referred to the absorbance of the solution at a wavelength of 600 nm.
(§2) 2) The density of each bacterial culture with OD600=0.6-0.8 cultured in step 1) was adjusted to OD600=0.001 and placed in a chessboard experimental device.
(§3) 3) Polymyxin B was subjected to 2-fold serial dilution along the horizontal axis, and dronedarone was subjected to 2-fold serial dilution along the vertical axis.
(§4) 4) A blank group (added with a LB broth medium) and a control group (added with a LB broth medium and the standard bacterial solution cultured in step 1).
(§5) 5) The final volume in each well of a 96-well plate was controlled to be 100 μL. After incubation for 18 h, each well was added with 10 μL of MTT, incubated at a condition of 37° C. with protection from light for 30 min, and then determined for the absorbance at 600 nm with a microplate reader. The bacterial inhibition rate was calculated according to the formula: bacterial inhibition rate (%)=1−(OD600 of an experimental group−OD600 of the blank group)/(OD600 of the control group−OD600 of the blank group)×100%, and a bacterial calorimetry diagram was drawn (the results were shown in FIGS. 1-5).
(§6) The calculation equation of the FIC index was as follows:
(§7) FIC=MICab/MICa+MICba/MICb=FICa+FICb, wherein a represented the dronedarone, b represented the polymyxin B, MICab was a MIC value of a combination of the dronedarone and the polymyxin B, MICba was a MIC value of a combination of the polymyxin B and the dronedarone, MICa or MICb was a MIC value of the dronedarone or the polymyxin B, respectively, and FICa or FICb was a FIC value of the dronedarone or the polymyxin B, respectively.

The test system of test [2] is standard strain of Klebsiella pneumoniae ATCC13883. Described as above. The test is classed as cell-based. Conditions: FIG. 1. The method, then:
as §1, §2, §3, §4, §5, §6, §7

Test [3] concerns standard strain of Acinetobacter baumannii ATCC19606. Described as above. It is filed as cell-based. The following applies: FIG. 3. The method, then:
as §1, §2, §3, §4, §5, §6, §7

In test [4] the test system is clinical resistant strain of Klebsiella pneumoniae 38206. The test is described as above. The test is classed as cell-based. The following applies: FIG. 2. As for the experimental part: as §1, §2, §3, §4, §5, §6, §7
Test [5] relates to standard strain of Pseudomonas aeruginosa ATCC27853. The test is described as above. It is filed as cell-based. The following applies: FIG. 5. The method, then: as §1, §2, §3, §4, §5, §6, §7
Test [6] relates to clinical polymyxin B-resistant strain of Klebsiella pneumoniae (38206). Put plainly: Mouse lung infection model, survival. The test is classed as in vivo, BALB/c female mice. The following applies: intraperitoneal injection, 7 days. The method, then:
The dronedarone and the polymyxin B were combined to form a pharmaceutical composition, and used in combination in a mouse infection model to further illustrate the present disclosure.
1) Establishment of lung infection model: 60 BALB/c female mice aged 6-8 weeks (weighing about 20 g) were injected intrapulmonically with a lethal dose of a clinical polymyxin B-resistant strain of Klebsiella pneumoniae (38206) to establish an infection model. The concentration of the clinical polymyxin B-resistant strain of Klebsiella pneumoniae 38206 was 1.0×10^8 CFUs per mouse;
2) Group treatment: The female mice were randomly divided into six groups (n=10 mice per group), and treated with the drug through intraperitoneal injection.
Among them, the six groups included a control group (injected with a PBS buffer), a treatment group I (injected with 0.2 mg/kg of the polymyxin B alone), a treatment group II (injected with 10 mg/kg of the dronedarone alone), a treatment group III (injected with a mixed solution of 0.2 mg/kg of the polymyxin B and 1 mg/kg of the dronedarone), a treatment group IV (injected with a mixed solution of 0.2 mg/kg of the polymyxin B and 5 mg/kg of the dronedarone), and a treatment group V (injected with a mixed solution of 0.2 mg/kg of the polymyxin B and 10 mg/kg of the dronedarone). […]

Where [7] appears, read: in combination with polymyxin B 0.25 μg/mL.
[8] abbreviates: in combination with dronedarone 5 μg/mL.
[9] abbreviates: polymyxin B 1 μg/mL, dronedarone not used.
Where [10] appears, read: in combination with dronedarone 2.5 μg/mL.
The mark [11] stands for this setting: polymyxin B 2 μg/mL, dronedarone not used.

Turning to `CCCCc1oc2ccc(NS(C)(=O)=O)cc2c1C(=O)c1ccc(OCCCN(CCCC)CCCC)cc1` [dronedarone, N-[2-butyl-3-[4-[3-(dibutylamino)propoxy]benzoyl]-1-benzofuran-5-yl]methanesulfonamide], the inhibition (as a rule, the change of the read-out against control, counted positive when it falls) at 20 µg/mL was about 0% in test [1] (Escherichia coli, ATCC25922, dronedarone alone at highest concentration 20 μg/mL, no polymyxin B, read-out: bacterial inhibition percentage); about 0% in test [2] (Klebsiella pneumoniae, ATCC13883, dronedarone alone at highest concentration 20 μg/mL, no polymyxin B, read-out: bacterial inhibition percentage); about 0% in test [3] (Acinetobacter baumannii, ATCC19606, dronedarone alone at highest concentration 20 μg/mL, no polymyxin B, read-out: bacterial inhibition percentage); about 0% in test [4] (Klebsiella pneumoniae, dronedarone alone at highest concentration 20 μg/mL, no polymyxin B, read-out: bacterial inhibition percentage); about 0% in test [5] (Pseudomonas aeruginosa, ATCC27853, dronedarone alone at highest concentration 20 μg/mL, no polymyxin B, read-out: bacterial inhibition percentage). The minimum inhibitory concentration (MIC) (in general, the lowest concentration found to suppress growth) in test [1] (Escherichia coli, ATCC25922, used alone, read-out: MIC used alone (MICa, MICb)) is over 20 µg/mL; in test [2] (Klebsiella pneumoniae, ATCC13883, used alone, read-out: MIC used alone (MICa, MICb)), over 20 µg/mL; in test [3] (Acinetobacter baumannii, ATCC19606, used alone, read-out: MIC used alone (MICa, MICb)), over 20 µg/mL; in test [4] (Klebsiella pneumoniae, used alone, read-out: MIC used alone (MICa, MICb)) it was over 20 µg/mL; in test [5] (Pseudomonas aeruginosa, ATCC27853, used alone, read-out: MIC used alone (MICa, MICb)) it was over 20 µg/mL. Also, the “MICab (MIC of dronedarone after combination with polymyxin B)” value in test [1] (setting [7]) worked out at 5 µg/mL; in test [2] (in combination with polymyxin B 0.13 μg/mL) it was 2.5 µg/mL; in test [3] (setting [7]), 5 µg/mL; in test [4] (in combination with polymyxin B 4 μg/mL), 2.5 µg/mL; in test [5] (in combination with polymyxin B 1 μg/mL), 10 µg/mL. For the same molecule, the survival rate in test [6] (dronedarone alone 10 mg/kg) was 10%.
As for polymyxin B, the “MICba (MIC of polymyxin B after combination with dronedarone)” value in test [1] (setting [8]) is 0.25 µg/mL; in test [2] (setting [10]) it was 0.13 µg/mL; in test [3] (setting [8]), 0.25 µg/mL; in test [4] (setting [10]) it was 4 µg/mL; in test [5] (in combination with dronedarone 10 μg/mL) it was 1 µg/mL. Further, the inhibition percentage came out at 100% in test [1] (setting [9]); 100% in test [2] (setting [11]); 100% in test [3] (setting [9]); 100% in test [4] (polymyxin B 16 μg/mL, dronedarone not used); 100% in test [5] (setting [11]). The “MIC used alone (MICa, MICb)” value in test [1] (used alone) amounted to 1 µg/mL; in test [2] (used alone) it was 2 µg/mL; in test [3] (used alone) it was 2 µg/mL; in test [4] (used alone), 16 µg/mL; in test [5] (used alone), 2 µg/mL. Moreover, the survival rate in test [6] (polymyxin B alone 0.2 mg/kg) is given as 10%.
